Results: patent US12503455B2, “Nucleic acid-binding photoprobes and uses thereof” (Arrakis Therapeutics, Inc., priority 2017, dated 2025)

Experiments:
Aptamer 21 [1] = assay: Capture of Aptamer 21 from a defined mixture of RNAs; assay type: binding
Protocol: A sample of folded RNA was prepared containing 1 μM each of Myc HP PA, Aptamer 21, FMN, MYC_3WJ-HP_N3G, and PreQ1 RNAs in folding buffer (20 mM TrisHCl pH 8, 100 mM KCl, 3 mM MgCl2). A 95 μL sample of this solution was added to a 5 μL aliquot of 0.2 mM ARK-670 (probe) or ARK-139 (control) in DMSO. The reaction was incubated for 30 min at 37° C., irradiated with long wave UV light (˜365 nm) for 30 min in a UV crosslinker (Fisher Scientific), and then cooled on ice. The excess probe and buffer was then removed by passing the sample through an Illustra MicroSpin G-25 spin column (GE Healthcare) according to the manufacturer's protocol.
For each treatment, a 75 μL aliquot of the crosslinked RNA was mixed with 0.75 μL of 10% Tween-20 and 0.45 μL of 0.5 M EDTA pH 8 solution. A 50 μL aliquot of MyOne Streptavidin C1 Dynabead slurry (Thermo) was captured on a magnet, washed twice with 50 μL of 1× bind/wash buffer (20 mM TrisHCl pH 7, 100 mM KCl, 0.1% Tween-20), and then resuspended in 50 μL of the crosslinked RNA sample. The bead suspension was rotated at room temperature for 60 min and then washed twice with 100 μL of 1× bind/wash solution. […]
To remove excess primer, the sample was mixed with 4.5 μL of ExoSAP-IT, incubated at 37° C. for 15 min, and then quenched with 1 μL of 0.5 M EDTA pH 8. […] The concentration was determined by absorbance at 260 nm. […]

Aptamer 21 [2] = assay: Biotin-photoaffinity probe cross-linking and streptavidin bead pull-down gel assay; assay type: binding; conditions: Aptamer 21 compared with Aptamer 21-E

COC(=O)C1=C(COCc2cn(CCOCCOCCNC(=O)[C@H](CCCCNC(=O)c3ccc(N=[N+]=[N-])cc3)NC(=O)CCCC[C@@H]3SC[C@@H]4NC(=O)N[C@@H]43)nn2)NC(c2ccncc2)=NC1c1ccc(F)cc1Cl (stereo partly drawn) [ARK-670]
RT pausing signal from probe adducts (Aptamer 21 [1]; Aptamer 21, Aptamer 21-E, or mixture of Aptamer 21 and four other RNAs): specific for Aptamer 21
enrichment of RNAs after cross-linking, avidin bead enrichment and sequencing (Aptamer 21 [1]; mixture of Aptamer 21 and four other RNAs): only Aptamer 21 was enriched
pull-down of RNA on streptavidin beads after cross-linking (Aptamer 21 [2]): Only the Aptamer 21 RNA showed significant pull-down
